Measurements from patent publication US7960377B2 (priority 2008, dated 2011).
Like-named read-outs stand apart in the source and are kept apart here. Marks after values point to notes of the source that are not given here.

Columns and labels:
Assay in all cases: cell-based
[1] = biological target: human CB1 receptor (Homo sapiens, UniProt P21554)
[2] = biological target: T1, rat CB2 receptor (Rattus norvegicus, UniProt Q9QZN9); type: cell-based; conditions: for inverse agonist mark, rat CB2 receptor: asterisk at the compound number
T1 sequence (Q9QZN9 1-360): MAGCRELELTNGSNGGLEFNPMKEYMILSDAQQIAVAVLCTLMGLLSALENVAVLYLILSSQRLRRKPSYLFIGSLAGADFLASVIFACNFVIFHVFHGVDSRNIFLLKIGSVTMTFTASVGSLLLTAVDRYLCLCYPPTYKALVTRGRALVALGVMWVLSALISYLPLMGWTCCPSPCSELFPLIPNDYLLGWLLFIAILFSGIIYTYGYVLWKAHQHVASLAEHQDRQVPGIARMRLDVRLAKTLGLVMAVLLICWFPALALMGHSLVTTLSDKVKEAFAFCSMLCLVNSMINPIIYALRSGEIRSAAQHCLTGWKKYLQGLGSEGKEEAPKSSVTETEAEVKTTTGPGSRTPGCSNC

[3] = biological target: human CB2 receptor (Homo sapiens, UniProt P34972); type: cell-based; conditions: for inverse agonist mark, human CB2 receptor: asterisk at the compound number
Chain of human CB2 receptor (P34972 whole entry): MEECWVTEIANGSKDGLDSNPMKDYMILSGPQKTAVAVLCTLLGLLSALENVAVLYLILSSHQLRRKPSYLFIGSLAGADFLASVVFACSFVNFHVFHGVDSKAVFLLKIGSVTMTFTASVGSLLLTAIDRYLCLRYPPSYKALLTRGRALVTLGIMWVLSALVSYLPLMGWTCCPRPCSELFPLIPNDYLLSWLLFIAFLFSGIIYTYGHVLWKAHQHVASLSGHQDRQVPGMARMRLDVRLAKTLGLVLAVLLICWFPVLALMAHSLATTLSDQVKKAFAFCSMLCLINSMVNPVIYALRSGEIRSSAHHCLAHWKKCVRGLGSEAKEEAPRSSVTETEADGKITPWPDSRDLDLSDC

[4] = change in intracellular cAMP, CHO-K1 hCB2 cells, class AR, read-out: EC50 values for human CB2 receptor

Chain of human CB1 receptor (P21554 whole entry): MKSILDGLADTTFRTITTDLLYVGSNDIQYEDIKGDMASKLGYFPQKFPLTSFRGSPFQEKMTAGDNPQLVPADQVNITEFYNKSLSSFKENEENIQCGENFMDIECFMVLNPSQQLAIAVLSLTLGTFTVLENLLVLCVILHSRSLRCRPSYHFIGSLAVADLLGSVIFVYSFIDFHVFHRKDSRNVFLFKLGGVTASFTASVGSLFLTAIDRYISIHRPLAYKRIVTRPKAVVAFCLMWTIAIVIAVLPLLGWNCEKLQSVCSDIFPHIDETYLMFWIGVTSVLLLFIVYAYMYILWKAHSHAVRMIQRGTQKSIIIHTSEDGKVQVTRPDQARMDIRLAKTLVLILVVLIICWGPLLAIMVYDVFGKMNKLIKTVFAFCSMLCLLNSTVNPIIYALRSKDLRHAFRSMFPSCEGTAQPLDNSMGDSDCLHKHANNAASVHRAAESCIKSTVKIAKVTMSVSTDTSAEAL

Structure (SMILES)	EC50 [1] [µM]	EC50 [2] [µM]	EC50 [3, 4] [µM]	inverse agonist mark, rat CB2 receptor [2]	EC50 [3] [µM]	inverse agonist mark, human CB2 receptor [3]
O=C(c1cnc2c(c1)N(S(=O)(=O)c1ccccc1)CCO2)N1CCOCC1 [Example 4, morpholino(1-(phenyl-sulfonyl)-2,3-dihydro-1H-pyrido[2,3-b][1,4]oxazin-7-yl)methanone]	> 30	> 30	> 30			
CNC(=O)[C@@H](NC(=O)c1cnc2c(c1)N(S(=O)(=O)c1ccccc1)CCO2)C(C)(C)C [Example 6, (S)-N-(3,3-dimethyl-1-(methylamino)-1-oxobutan-2-yl)-1-(phenyl-sulfonyl)-2,3-dihydro-1H-pyrido[2,3-b][1,4]oxazine-7-carboxamide]	> 30	≤ 0.03		2, 3, 6*, 7, 8, 10, 11, 12, 15*, 20, 21, 22, 23, 24, 25, 26, 27, 33, 39,	> 30	
CNC(=O)[C@@H](NC(=O)c1cnc2c(c1)N(S(=O)(=O)c1ccc(F)cc1)CCO2)C(C)(C)C [Example 15, (S)-N-(3,3-dimethyl-1-(methylamino)-1-oxobutan-2-yl)-1-(4-fluorophenyl-sulfonyl)-2,3-dihydro-1H-pyrido [2,3-b][1,4]oxazine-7-carboxamide]	> 30	≤ 0.03		2, 3, 6*, 7, 8, 10, 11, 12, 15*, 20, 21, 22, 23, 24, 25, 26, 27, 33, 39,		1, 5, 9, 12, 14, 15*, 28, 29, 34, 35, 36, 37, 41, 44, 49, 50, 51, 54, 56,
CC(C)(C)N(CCCN)C(=O)c1cnc2c(c1)N(S(=O)(=O)c1ccc(C(F)(F)F)cc1)CCO2 [Example 45, N-(3-aminopropyl)-N-tert-butyl-1-(4-(trifluoromethyl)phenylsulf-onyl)-2,3-dihydro-1H-pyrido[2,3-b][1,4]oxazine-7-carboxamide]	> 30	> 30	> 30			
O=C(c1cnc2c(c1)N(S(=O)(=O)c1ccc(C(F)(F)F)cc1)CCO2)N1CCS(=O)(=O)CC1 [Example 52, 1′,1′-dioxide-thiomorpholino(1-(4-(trifluoromethyl)phenylsulf-onyl)-2,3-dihydro-1H-pyrido[2,3-b][1,4]oxazin-7-yl)methanone]	> 30	> 30	> 30			
CC(C)(C)NC(=O)c1cnc2c(c1)N(S(=O)(=O)c1ccc(Cl)c(Cl)c1)CCO2 [Example 55, N-tert-butyl-1-(3,4-dichlorophenylsulfonyl)-2,3-dihydro-1H-pyrido[2,3-b][1,4]oxazine-7-carboxamide]	> 30	≤ 0.03			≤ 0.03	
CCC(C)(C)NC(=O)c1cnc2c(c1)N(S(=O)(=O)c1ccc(C(F)(F)F)cc1)CCO2 [Example 66, N-tert-pentyl-1-(4-(trifluoromethyl)phenylsulf-onyl)-2,3-dihydro-1H-pyrido[2,3-b][1,4]oxazine-7-carboxamide]	> 30	≤ 0.03			≤ 0.03	
O=C(O)[C@H]1CCCCN1C(=O)c1cnc2c(c1)N(S(=O)(=O)c1ccc(C(F)(F)F)cc1)CCO2 [Example 78, (R)-1-(1-(4-(trifluoro-methyl)phenylsulfonyl)-2,3-dihydro-1H-pyrido-[2,3-b][1,4]oxazine-7-carbonyl)piperidine-2-carboxylic acid]	> 30	> 30	> 30			
CC(C)(C)NC(=O)c1cnc2c(c1)N(S(=O)(=O)c1ccc(Cl)s1)CCO2 [Example 94, N-tert-butyl-1-(5-chlorothiophen-2-ylsulfonyl)-2,3-dihydro-1H-pyrido[2,3-b][1,4]oxazine-7-carboxamide]	> 30	> 30	> 30			
CS(=O)(=O)N1CCN(C(=O)c2cnc3c(c2)N(S(=O)(=O)c2ccc(Cl)c(Cl)c2)CCO3)CC1 [Example 116, (1-(3,4-dichloro-phenylsulfonyl)-2,3-dihydro-1H-pyrido[2,3-b][1,4]oxazin-7-yl)(4-(methylsulfonyl)piperazin-1-yl)methanone]	> 30	> 30	> 30			
CN(C)S(=O)(=O)N1CCN(C(=O)c2cnc3c(c2)N(S(=O)(=O)c2ccc(Cl)c(Cl)c2)CCO3)CC1 [Example 119, 4-(1-(3,4-dichlorophenylsulfonyl)-2,3-dihydro-1H-pyrido [2,3-b][1,4]oxazine-7-carbonyl)-N,N-dimethyl piperazine-1-sulfonamide]	> 30	> 30	> 30			
O=C(N[C@@H]1CCCC[C@H]1O)c1cnc2c(c1)N(S(=O)(=O)c1ccc(Cl)c(Cl)c1)CCO2 [Example 135, 1-(3,4-dichlorophenyl-sulfonyl)-N-((1R,2R)-2-hydroxycyclohexyl)-2,3-dihydro-1H-pyrido[2,3-b][1,4]oxazine-7-carboxamide]	> 30	≤ 0.03			> 30	
CC(C)(C)c1cc(NC(=O)c2cnc3c(c2)N(S(=O)(=O)N2CCC(C(F)(F)F)CC2)CCO3)on1 [Example 153, N-(3-tert-butylisoxazol-5-yl)-1-(4-(trifluoromethyl)piperidin-1-ylsulfonyl)-2,3-dihydro-1H-pyrido[2,3-b][1,4]oxazine-7-carboxamide]	≤ 0.3	≤ 0.03		146, 148, 149, 150, 151, 152, 153*, 154*, 155, 156, 157, 163, 164,	> 30	
CC(C)(CO)NC(=O)c1cnc2c(c1)N(S(=O)(=O)N1CCC(c3ccccc3)CC1)CCO2 [Example 160, N-(1-hydroxy-2-methylpropan-2-yl)-1-(4-phenylpiperidin-1-ylsulfonyl)-2,3-dihydro-1H-pyrido[2,3-b][1,4]oxazine-7-carboxamide]	> 30	> 30			> 30	
CC(C)(C)c1cc(NC(=O)c2cnc3c(c2)N(S(=O)(=O)N2CCC(c4ccccc4)CC2)CCO3)no1 [Example 162, N-(5-tert-butylisoxazol-3-yl)-1-(4-phenylpiperidin-1-ylsulfonyl)-2,3-dihydro-1H-pyrido[2,3-b][1,4]oxazine-7-carboxamide]	> 30			108, 114, 117, 122, 126, 128, 129, 130, 141, 147, 162*, 165*, 179,		128, 129, 130, 132, 133, 140, 141, 142, 143, 147, 148, 149, 162*,
CCC(C)(C)NC(=O)c1cnc2c(c1)N(S(=O)(=O)N1CCC(F)CC1)CCO2 [Example 167, 1-(4-fluoropiperidin-1-ylsulfonyl)-N-tert-pentyl-2,3-dihydro-1H-pyrido[2,3-b][1,4]oxazine-7-carboxamide]	> 30	≤ 0.03			≤ 0.03	
CCC(C)(C)NC(=O)c1cnc2c(c1)N(S(=O)(=O)N1CCC(N3CCCC3)CC1)CCO2 [Example 177, N-tert-pentyl-1-(4-(pyrrolidin-1-yl)piperidin-1-ylsulfonyl)-2,3-dihydro-1H-pyrido[2,3-b][1,4]oxazine-7-carboxamide]	> 30	> 30			> 30	
CC(C)(CO)NC(=O)c1cnc2c(c1)N(S(=O)(=O)N1CCC(Cl)CC1)CCO2 [Example 186, 1-(4-chloropiperidin-1-ylsulfonyl)-N-(1-hydroxy-2-methylpropan-2-yl)-2,3-dihydro-1H-pyrido[2,3-b][1,4]oxazine-7-carboxamide]	> 30	≤ 0.03			> 30	
CC(C)(CO)CNC(=O)c1cnc2c(c1)N(S(=O)(=O)N1CCc3ccccc3C1)CCO2 [Example 191, 1-(3,4-dihydroisoquinolin-2(1H)-ylsulfonyl)-N-(3-hydroxy-2,2-dimethylpropyl)-2,3-dihydro-1H pyrido[2,3-b][1,4]oxazine-7-carboxamide]	> 30	≤ 0.03			> 30	
CN(CC(C)(C)CO)C(=O)c1cnc2c(c1)N(S(=O)(=O)N1CCc3ccccc3C1)CCO2 [Example 192, 1-(3,4-dihydroisoquinolin-2(1H)-ylsulfonyl)-N-(3-hydroxy-2,2-dimethyl-propyl)-N-methyl-2,3-dihydro-1H-pyrido[2,3-b][1,4]oxazine-7-carboxamide]	> 30	> 30			> 30	
CC(C)(C)NC(=O)c1cnc2c(c1)N(S(=O)(=O)N1CC(F)(F)C1)CCO2 [Example 193, N-tert-butyl-1-(3,3-difluoroazetidin-1-ylsulfonyl)-2,3-dihydro-1H-pyrido[2,3-b][1,4]oxazine-7-carboxamide]	> 30	≤ 0.03			> 30	
CCC(C)(C)NC(=O)c1cnc2c(c1)N(S(=O)(=O)N1CC(F)(F)C1)CCO2 [Example 194, 1-(3,3-difluoroazetidin-1-ylsulfonyl)-N-tert-pentyl-2,3-dihydro-1H-pyrido[2,3-b][1,4]oxazine-7-carboxamide]	> 30	≤ 0.03			> 30	
O=C(NC1(C(=O)O)CC1)c1cnc2c(c1)N(S(=O)(=O)c1ccc(C(F)(F)F)cc1)CCO2 [Example 206, 1-(1-(4-(trifluoromethyl)phenylsulfonyl)-2,3-dihydro-1H-pyrido[2,3-b][1,4]oxazine-7-carboxamido)cyclopropanecarboxylic acid]	> 30	> 30	> 30			
CC(C)(C)c1nnc(-c2cnc3c(c2)N(S(=O)(=O)c2ccc(F)cc2)CCO3)o1 [Example 212, 7-(5-tert-butyl-1,3,4-oxadiazol-2-yl)-1-(4-fluorophenylsulfonyl)-2,3-dihydro-1H-pyrido[2,3-b][1,4]oxazine]		≤ 0.03			≤ 0.03	
